pIC50: −log10 of the molar value.

Data set [1] relates to HCV NS5A protein in 9-13 replicon cells. Briefly: Quantitative Western blot replicon assay (HEPC_REPLICON-ICWESTERN). The following applies: Hepatitis C virus; 9-13 replicon cells, 50% reduction in NS5A protein; read-out: HEPC_REPLICON-ICWESTERN Result Value (IC50). It is filed as cell-based, Hepatitis C virus (HCV). The protocol:
Alternatively, the inhibitory activity of the metabolically active agents of the prodrugs can be confirmed using a quantitative Western immunoblot assay utilizing antibodies specific for HCV non-structural proteins, such as NS3, NS4A NS5A and NS5B. In one embodiment of this assay, replicon cells are treated with varying concentrations of test prodrug to determine the concentration of the metabolically active agent of the test prodrug that yields a 50% reduction in the amount of a non-structural protein produced as compared to a control sample (IC50). A single non-structural protein may be quantified or multiple non-structural proteins may be quantified. Antibodies suitable for carrying out such immunoblot assays are available commercially (e.g., from BIODESIGN International, Saco, Me.).
Certain prodrugs of the invention, which may inhibit HCV translation or replication prior to metablism and/or are metabolized into active agents, were also tested for their ability to inhibit HCV replication using a quantitative Western blot analysis with antibodies specific for the HCV NS5A or other non-structural proteins. Actively dividing 9-13 replicon cells were seeded into 6-well plates at a density of 1×10^5 cells/well in a volume of 2 ml/well and incubated at 37° C. and 5% CO2 for 24 hours. Various concentrations of test prodrugs (in a volume of 10 ul) were added to the wells and the cells incubated for another 48 hours. Protein samples were prepared from the cultured cells, resolved on a SDS-PAGE gel and transferred to a nitrocellulose membrane. The membrane was blocked with 5% non-fat milk in PBS for 1 hour at room temperature. Primary antibody (anti NS5A antibody; BIODESIGN International, Saco, Me.) incubation was performed for 1 hour at room temperature, after which the membrane was washed 3 times (for 15 min per time) with PBST (PBS plus 0.1% Tween 20). Horseradish peroxidase conjugated secondary antibody incubation was performed for 1 hour at room temperature and the membrane was washed 3 times (for 15 min per time) with PBST. The membrane was then soaked in substrate solution (Pierce) and exposed to a film or quantified using an imager. In this assay, the amount of test prodrug that is believed to be transformed into an active agent under the given conditions that yielded a 50% reduction in the amount of NS5A protein translated as compared to a control sample (IC50) was determined.
For orientation: A western blot detects proteins with antibodies after separation by electrophoresis.

Data set [2] deals with HCV replicon in 5-2 Luc replicon-comprising cells. Put plainly: HCV replicon assay, luciferase readout (HEPC_REPLICON-LUC). The following applies: Hepatitis C virus; 5-2 Luc replicon cells, 50% reduction in luciferase emission; read-out: HEPC_REPLICON-LUC Result Value (IC50). It is filed as cell-based. The text has this: In one embodiment, the inhibitory activity of the metabolically active agent of the prodrug can be confirmed in a replicon assay that assesses the ability of a test compound to block or inhibit HCV replication in replicon cells. One example of a suitable replicon assay is the liver cell-line Huh 7-based replicon assay described in Lohmann et al., 1999, Science 285:110-113. A specific example of this replicon assay which utilizes luciferase translation is provided in the Examples Section. In one embodiment of this assay, the amount of test prodrug that yields a 50% reduction in translation as compared to a control cell (IC50) may be determined.
The inhibitory activity of certain prodrugs of the invention, which may inhibit HCV translation or replication prior to metablism and/or are metabolized into active agents, was confirmed using an HCV replicon assay. The HCV replicon can include such features as the HCV 5′ untranslated region including the HCV IRES, the HCV 3′ untranslated region, selected HCV genes encoding HCV polypeptides, selectable markers, and a reporter gene such as luciferase, GFP, etc. In the assay, actively dividing 5-2 Luc replicon-comprising cells (obtained from Ralf Bartenschlager; see Lohmann et al., 1999, Science 285:110-113) were seeded at a density of between about 5,000 and 7,500 cells/well onto 96 well plates (about 90 μl of cells per well) and incubated at 37° C. and 5% CO2 for 24 hours. Then, the test prodrug (in a volume of about 10 μl) was added to the wells at various concentrations and the cells were incubated for an additional 24-48 hours before luciferase assay. The media was aspirated from each well and Bright-Glo (Promega, Madison, Wis.) luciferase assay reagents were added to each well according to the manufacturer's instructions. Briefly, the Bright-Glo reagent was diluted 1:1 with PBS and 100 μl of diluted reagent was added to each well. After 5 min of incubation at room temperature, luciferin emission was quantified with a luminometer. In this assay, the amount of test prodrug that yielded a 50% reduction in luciferase emission (IC50) was determined. This IC50 value may represent the antiviral activity of the prodrug itself, the activity of prodrug transformed into its active metabolized form, or a combination of the two.
(In antiviral work, replicon cells carry a viral genome segment that copies itself.)

A short description of data set [3]: Pharmacokinetic studies in portal/jugular vein cannulated rats after oral administration. It is filed as in vivo, male Spraque-Dawley rats. The protocol: Pharamcokinetic studies were conducted in rats containing surgically implanted cannula in the portal and jugular veins. Blood samples were taken simultaneously from both cannula at various times after oral administration of the compounds. In the portal vein, the prodrugs are detected and, in some cases, the active compound, A-B—C—NHCOCHX2, has also been detected. The presence of active compound in the portal vein samples has been attributed to metabolism of the prodrug in transit through the gut wall. […] In the jugular samples, many, but not all, of the prodrugs have been detected in systemic circulation, depending on the hepatic extraction ratio of the prodrug.
Compounds were dissolved in a mixture of TPGS:PEG:PG (35%:60%:5%) and diluted with saline for oral administration. Typically, 6.5 mg of compound was dissolved in 1 ml of the organic mixture and added to 5.5 ml of saline. Animals were dosed with 5 ml/kg of this mixture to give a typical dose of 5 mg/kg. All animal studies were conducted in male Spraque-Dawley rats and the animals were fasted overnight prior to dose administration. Surgeries (to implant blood sampling cannula) were conducted at least two days prior to the study. Blood samples (100 μl) were collected using sodium heparin as anticoagulant and added to 300 μl of a mixture of acetate buffer (100 mM, pH=6.5):acetonitrile:ethanol:DMSO (2:1:1:2 v/v). Samples were centrifuged and the supernatant was analyzed by LC/MS/MS using the procedures outlined above. Standards were prepared similarly using fresh rat blood from naive animals.
No. 66 and Cpd. No. 64 (Table 3). […] Because the portal blood flows directly to the liver, the intact active parent compound may exert an anti-viral effect in the liver.

Broadly, the pIC50 is the IC50 on a negative log10 scale, so that one unit is a factor of ten. Turning to `NCCN(C(=O)C(Cl)Cl)c1cccc(-c2cc(-c3c(Cl)cccc3Cl)no2)c1` [Cpd. No. 16, N-(2-Aminoethyl)-2,2-dichloro-N-(3-(3-(2,6-dichlorophenyl)isoxazol-5-yl)phenyl)acetamide], the pIC50 in data set [1] and in data set [2] was 4.70 to 6.00 throughout.
In the case of `CC(C)C(NC(=O)C1CC(O)CN1C(=O)OC(C)(C)C)C(=O)CCN(C(=O)C(Cl)Cl)c1ccnc(-c2cc(-c3c(Cl)cccc3Cl)no2)c1` (stereo not shown) [Cpd. No. 53, tert-Butyl 2-(6-(2,2-Dichloro-N-(2-(3-(2,6-dichlorophenyl)isoxazol-5-yl)pyridin-4-yl)acetamido)-2-methyl-4-oxohexan-3-ylcarbamoyl)-4-hydroxypyrrolidine-1-carboxylate], the pIC50 in data set [1] and in data set [2] was greater than 6.00 in each case.
In the case of `CC(C)C(NC(=O)CN)C(=O)CCN(C(=O)C(Cl)Cl)c1ccnc(-c2cc(-c3c(Cl)cccc3Cl)no2)c1` (stereo not shown) [Cpd. No. 50, N-(4-(2-Aminoacetamido)-5-methyl-3-oxohexyl)-2,2-dichloro-N-(2-(3-(2,6-dichlorophenyl)isoxazol-5-yl)pyridin-4-yl)acetamide], the pIC50 in data set [1] and in data set [2] was greater than 6.00 in each case.
`CC(C)C(NC(=O)CNC(=O)OC(C)(C)C)C(=O)CCN(C(=O)C(Cl)Cl)c1ccnc(-c2cc(-c3c(Cl)cccc3Cl)no2)c1` (stereo not shown) [Cpd. No. 49, tert-Butyl 2-(6-(2,2-Dichloro-N-(2-(3-(2,6-dichlorophenyl)isoxazol-5-yl)pyridin-4-yl)acetamido)-2-methyl-4-oxohexan-3-ylamino)-2-oxoethylcarbamate]: the pIC50 in data set [1] and in data set [2] was greater than 6.00 in each case.
A word on the AUC: it is the area under the concentration-time curve, a measure of exposure. In the case of `N[C@H](C(=O)NCCN(C(=O)C(Cl)Cl)c1cccc(-c2cc(-c3c(Cl)cccc3Cl)no2)c1)c1ccccc1` [Cpd. No. 18, (S)-N-(2-(2-Amino-2-phenylacetamido)ethyl)-2,2-dichloro-N-(3-(3-(2,6-dichlorophenyl)isoxazol-5-yl)phenyl)acetamide], in data set [1], the pIC50 was less than 4.70. For the same compound, the AUC in data set [3] (male, Sprague-Dawley, rat, portal vein blood, 5 mg/kg oral dose of prodrug) worked out at 627 ng·h/mL.
Regarding `CC(C)OC(=O)OCN(C(=O)C(Cl)Cl)c1ccnc(-c2cc(-c3c(Cl)cccc3Cl)no2)c1` [Cpd. No. 57, (2,2-Dichloro-N-(2-(3-(2,6-dichlorophenyl)isoxazol-5-yl)pyridin-4-yl)acetamido)methyl Isopropyl Carbonate], the pIC50 in data set [1] and in data set [2] was 4.70 to 6.00 in each case.
As for `CC(C)C(NC(=O)C(CCC(=O)OC(C)(C)C)NC(=O)OC(C)(C)C)C(=O)CCN(C(=O)C(Cl)Cl)c1ccnc(-c2cc(-c3c(Cl)cccc3Cl)no2)c1` (stereo not shown) [Cpd. No. 55, tert-Butyl 4-(tert-Butoxycarbonylamino)-5-(6-(2,2-dichloro-N-(2-(3-(2,6-dichlorophenyl)isoxazol-5-yl)pyridin-4-yl)acetamido)-2-methyl-4-oxohexan-3-ylamino)-5-oxopentanoate], the pIC50 in data set [1] was 4.70 to 6.00; in data set [2], greater than 6.00.
As for `O=C(C(Cl)Cl)N(CCP(=O)(O)O)c1cccc(-c2cc(-c3c(Cl)cccc3Cl)no2)c1` [Cpd. No. 2, 2-(2,2-Dichloro-N-(3-(3-(2,6-dichlorophenyl)isoxazol-5-yl)phenyl)acetamido)ethylphosphonic acid], the pIC50 in data set [1] and in data set [2] was less than 4.70 in each case.
For `CC(C)C(N)C(=O)NC(C(=O)CCN(C(=O)C(Cl)Cl)c1ccnc(-c2cc(-c3c(Cl)cccc3Cl)no2)c1)C(C)C` (stereo not shown) [Cpd. No. 48, 2-Amino-N-(6-(2,2-dichloro-N-(2-(3-(2,6-dichlorophenyl)isoxazol-5-yl)pyridin-4-yl)acetamido)-2-methyl-4-oxohexan-3-yl)-3-methylbutanamide], the pIC50 in data set [1] and in data set [2] was greater than 6.00 each time.
Consider `CCC(C)C(NC(=O)OC(C)(C)C)C(=O)NC(C(=O)CCN(C(=O)C(Cl)Cl)c1ccnc(-c2cc(-c3c(Cl)cccc3Cl)no2)c1)C(C)C` (stereo not shown) [Cpd. No. 51, tert-Butyl 1-(6-(2,2-Dichloro-N-(2-(3-(2,6-dichlorophenyl)isoxazol-5-yl)pyridin-4-yl)acetamido)-2-methyl-4-oxohexan-3-ylamino)-3-methyl-1-oxopentan-2-ylcarbamate], for which the pIC50 in data set [1] and in data set [2] was greater than 6.00 throughout.
With `NC(CCC(=O)CCN(C(=O)C(Cl)Cl)c1ccnc(-c2cc(-c3c(Cl)cccc3Cl)no2)c1)C(=O)O` (stereo not shown) [Cpd. No. 5, 2-Amino-7-(2,2-dichloro-N-(2-(3-(2,6-dichlorophenyl)isoxazol-5-yl)pyridin-4-yl)acetamido)-5-oxoheptanoic acid], the pIC50 in data set [1] and in data set [2] was greater than 6.00 each time.
In the case of `CCC(C)C(N)C(=O)NC(C(=O)CCN(C(=O)C(Cl)Cl)c1ccnc(-c2cc(-c3c(Cl)cccc3Cl)no2)c1)C(C)C` (stereo not shown) [Cpd. No. 52, 2-Amino-N-(6-(2,2-dichloro-N-(2-(3-(2,6-dichlorophenyl)isoxazol-5-yl)pyridin-4-yl)acetamido)-2-methyl-4-oxohexan-3-yl)-3-methylpentanamide], the pIC50 in data set [1] and in data set [2] was greater than 6.00 in each case.
On to `CC(C)C(N)C(=O)CCN(C(=O)C(Cl)Cl)c1ccnc(-c2cc(-c3c(Cl)cccc3Cl)no2)c1` (stereo not shown) [Cpd. No. 3, N-(4-Amino-5-methyl-3-oxohexyl)-2,2-dichloro-N-(2-(3-(2,6-dichlorophenyl)isoxazol-5-yl)pyridin-4-yl)acetamide], for which the pIC50 in data set [1] and in data set [2] was greater than 6.00 each time.
`O=C(Nc1ccnc(-c2cc(-c3c(Cl)cccc3Cl)no2)c1)C(Cl)Cl` [Cpd. No. 64]: the “Active parent compound concentrations versus dose” value in data set [3] (oral, portal vein) is “increase in a linear fashion with dose”. Also, the “Absorption and hydrolysis of the orally administered parent compound” value in data set [3] (oral, portal vein plasma) was “well absorbed but is extensively hydrolyzed to the inactive metabolite”.

Source of the values: patent US7498353B2, “Heterocyclic anti-viral compounds comprising metabolizable moieties and their uses” (priority 2005, dated 2009).
